From paper PMC8854719, “Phase 1A/1B dose-escalation and -expansion study to evaluate the safety, pharmacokinetics, food effects and antitumor activity of pamiparib in advanced solid tumours” (British Journal of Cancer, 2021)
“Also recorded” adds a separate entry of the source. Marks after values point to notes of the source that are not given here.

Assay: Safety and tolerability: adverse events, dose-limiting toxicities, MTD, RP2D (Phase 1A/1B)
Assay type: in vivo
Description: This was an open-label, Phase 1, dose-escalation/dose-expansion study, conducted across six study centres in Australia. The dose-escalation phase evaluated twice-daily (BID) and once-daily (QD) dosing, and the dose-expansion phase evaluated the BID RP2D from the dose-escalation phase and food effects (Fig. 1). The food-effects cohort comprised two sequences: fast followed by fed (sequence 1) and fed followed by fast (sequence 2). […] The decision to proceed to the next dose cohort was determined by the Safety Monitoring Committee and followed a modified 3 + 3 escalation scheme. […] When ≥2 DLTs occurred in the first 23 days of a dose level, the next lower dose level was declared the MTD. Safety was monitored and DLTs were assessed in all dose cohorts. […] The food-effects cohort investigated the effects of food on the PK of pamiparib in patients with advanced solid tumours.
The QD dosing regimen was added as an amendment to the protocol with the purpose of exploring the feasibility of a more convenient regimen.
Safety and tolerability were assessed throughout the study by monitoring adverse events (AEs), serious AEs, clinical laboratory measurements and physical examinations. Adverse events were categorised according to their severity (National Cancer Institute Common Terminology Criteria for Adverse Events v4.03) and relationship to the study treatment.

For `C[C@]12CCCN1CC1=NNC(=O)c3cc(F)cc4[nH]c2c1c34` [pamiparib], the “Pyrexia, AE of any grade” value (120 mg BID (n = 5)) was 1 (20.0) n (%), the “Treatment-emergent AE” value (120 mg BID (n = 5)) was 5 (100.0) n (%) and the “Treatment-emergent AE: Grade 3 or higher” value (120 mg BID (n = 5)) was 5 (100.0) n (%). For the same compound, the “Treatment-emergent AE: Leading to death” value (120 mg BID (n = 5)) was 0 (0.0) n (%), the “Treatment-emergent AE: Leading to dose interruption” value (120 mg BID (n = 5)) was 4 (80.0) n (%) and the “Treatment-emergent AE: Leading to dose modification” value (120 mg BID (n = 5)) was 4 (80.0) n (%). For the same compound, the “Treatment-emergent AE: Leading to dose reduction” value (120 mg BID (n = 5)) was 1 (20.0) n (%), the “Treatment-emergent AE: Leading to treatment discontinuation” value (120 mg BID (n = 5)) was 2 (40.0) n (%) and the “Treatment-emergent AE: Serious” value (120 mg BID (n = 5)) was 3 (60.0) n (%). For the same compound, the “Treatment-related AE” value (120 mg BID (n = 5)) was 5 (100.0) n (%), the “Treatment-related AE: Grade 3 or higher” value (120 mg BID (n = 5)) was 3 (60.0) n (%) and the “Treatment-related AE: Leading to death” value (120 mg BID (n = 5)) was 0 (0.0) n (%). For the same compound, the “Treatment-related AE: Leading to dose interruption” value (120 mg BID (n = 5)) was 3 (60.0) n (%), the “Treatment-related AE: Leading to dose modification” value (120 mg BID (n = 5)) was 3 (60.0) n (%) and the “Treatment-related AE: Leading to dose reduction” value (120 mg BID (n = 5)) was 1 (20.0) n (%). The “Treatment-related AE: Leading to treatment discontinuation” value (120 mg BID (n = 5)) was 2 (40.0) n (%), the “Treatment-related AE: Serious” value (120 mg BID (n = 5)) was 1 (20.0) n (%) and the “Upper respiratory tract infection, AE of any grade” value (120 mg BID (n = 5)) was 0 (0.0) n (%). The “Urinary tract infection, AE of any grade” value (120 mg BID (n = 5)) was 2 (40.0) n (%), the “Vomiting, AE of any grade” value (120 mg BID (n = 5)) was 1 (20.0) n (%) and the “Dose-limiting toxicities observed (description)” value (120 mg BID, two patients, n = 1 each) was “Grade 2 nausea, grade 3 fatigue, and grade 3 paresthesia; also recorded: Grade 2 nausea and Grade 2 anorexia; also recorded: Grade 2 nausea, Grade 3 fatigue and Grade 3 paraesthesia”. The “Diarrhea, AE” value (120 mg QD) was 50.0%, the “Fatigue, AE” value (120 mg QD) was 75.0% and the “Nausea, AE” value (120 mg QD) was 50.0%. For the same compound, the Dose-limiting toxicity (120 mg QD (n=8)) was 0 (0.0) n (%), the “Treatment-emergent AE” value (120 mg QD (n=8)) was 8 (100.0) n (%) and the “Treatment-emergent AE: Grade 3 or higher” value (120 mg QD (n=8)) was 5 (62.5) n (%). The “Treatment-emergent AE: Leading to death” value (120 mg QD (n=8)) was 0 (0.0) n (%), the “Treatment-emergent AE: Leading to dose interruption” value (120 mg QD (n=8)) was 6 (75.0) n (%) and the “Treatment-emergent AE: Leading to dose modification” value (120 mg QD (n=8)) was 6 (75.0) n (%). For the same compound, the “Treatment-emergent AE: Leading to dose reduction” value (120 mg QD (n=8)) was 1 (12.5) n (%), the “Treatment-emergent AE: Leading to treatment discontinuation” value (120 mg QD (n=8)) was 0 (0.0) n (%) and the “Treatment-emergent AE: Serious” value (120 mg QD (n=8)) was 2 (25.0) n (%). For the same compound, the “Treatment-related AE” value (120 mg QD (n=8)) was 6 (75.0) n (%), the “Treatment-related AE: Grade 3 or higher” value (120 mg QD (n=8)) was 3 (37.5) n (%) and the “Treatment-related AE: Leading to death” value (120 mg QD (n=8)) was 0 (0.0) n (%). For the same compound, the “Treatment-related AE: Leading to dose interruption” value (120 mg QD (n=8)) was 4 (50.0) n (%), the “Treatment-related AE: Leading to dose modification” value (120 mg QD (n=8)) was 4 (50.0) n (%) and the “Treatment-related AE: Leading to dose reduction” value (120 mg QD (n=8)) was 1 (12.5) n (%). The “Treatment-related AE: Leading to treatment discontinuation” value (120 mg QD (n=8)) was 0 (0.0) n (%), the “Treatment-related AE: Serious” value (120 mg QD (n=8)) was 0 (0.0) n (%) and the “Diarrhea, AE” value (160 mg QD) was 45.5%. For the same compound, the “Fatigue, AE” value (160 mg QD) was 63.6%, the “Nausea, AE” value (160 mg QD) was 90.9% and the Dose-limiting toxicity (160 mg QD (n=11)) was 1 (9.1)^d n (%). The “Treatment-emergent AE” value (160 mg QD (n=11)) was 11 (100.0) n (%), the “Treatment-emergent AE: Grade 3 or higher” value (160 mg QD (n=11)) was 9 (81.8) n (%) and the “Treatment-emergent AE: Leading to death” value (160 mg QD (n=11)) was 0 (0.0) n (%). For the same compound, the “Treatment-emergent AE: Leading to dose interruption” value (160 mg QD (n=11)) was 7 (63.6) n (%), the “Treatment-emergent AE: Leading to dose modification” value (160 mg QD (n=11)) was 7 (63.6) n (%) and the “Treatment-emergent AE: Leading to dose reduction” value (160 mg QD (n=11)) was 0 (0.0) n (%). For the same compound, the “Treatment-emergent AE: Leading to treatment discontinuation” value (160 mg QD (n=11)) was 2 (18.2) n (%), the “Treatment-emergent AE: Serious” value (160 mg QD (n=11)) was 4 (36.4) n (%) and the “Treatment-related AE” value (160 mg QD (n=11)) was 11 (100.0) n (%). For the same compound, the “Treatment-related AE: Grade 3 or higher” value (160 mg QD (n=11)) was 7 (63.6) n (%), the “Treatment-related AE: Leading to death” value (160 mg QD (n=11)) was 0 (0.0) n (%) and the “Treatment-related AE: Leading to dose interruption” value (160 mg QD (n=11)) was 7 (63.6) n (%). The “Treatment-related AE: Leading to dose modification” value (160 mg QD (n=11)) was 7 (63.6) n (%), the “Treatment-related AE: Leading to dose reduction” value (160 mg QD (n=11)) was 0 (0.0) n (%) and the “Treatment-related AE: Leading to treatment discontinuation” value (160 mg QD (n=11)) was 2 (18.2) n (%). For the same compound, the “Treatment-related AE: Serious” value (160 mg QD (n=11)) was 1 (9.1) n (%), the “Patients who experienced a DLT” value (160 mg QD, one of 11) was 9% and the “Dose-limiting toxicities observed (description)” value (160 mg QD, one patient) was “grade 2 nausea”. For the same compound, the “Serious AE: anemia” value (101 patients) was 4.0%, the “Serious AE: intestinal obstruction” value (101 patients) was 4.0% and the “Serious AE: malignant gastrointestinal obstruction” value (101 patients) was 3.0%.
